This note sets out measurements from ChEMBL document CHEMBL3826906, “Synthesis of MR-49, a deiodinated analog of tetraiodothyroacetic acid (tetrac), as a novel pro-angiogenesis modulator” (2016).

Assay [1] deals with Mus musculus. The experiment in a line: Pro-angiogenic activity in Balb/c mouse subcutaneously implanted 4 times with 10 ug/implant compound treated mouse EHS-derived matrigel assessed as FGF2-induced matrigel plug vascularization by measuring increase in hemoglobin level measured after 7 to 10 days by spectrophotometric analysis relative to control. Format: functional.
Assay [2] relates to Mus musculus. The experiment in a line: Antiangiogenic activity in Balb/c mouse subcutaneously implanted 4 times with 10 ug/implant compound treated mouse EHS-derived matrigel assessed as inhibition of FGF2-induced matrigel plug vascularization by measuring decrease in hemoglobin level measured after 7 to 10 days by spectrophotometric analysis relative to control. Format: functional.

Take `O=C(O)Cc1cc(I)c(Oc2ccc(O)cc2)c(I)c1`: the “fold change (FC)” value with Mus musculus [1] stood at 1.6.

For `N[C@@H](Cc1cc(I)c(Oc2ccc(O)c(I)c2)c(I)c1)C(=O)O` [LIOTHYRONINE], the “fold change (FC)” value with Mus musculus [1] was 1.4.

With `O=C(O)Cc1cc(I)c(Oc2cc(I)c(O)c(I)c2)c(I)c1` [TETRAC], the “inhibition (INH)” value in the assay on Mus musculus [2] was 50%.
